Where two headings read alike, the source gives them in different places.

Common to all, as to test: biochemical
Common to all, as to parameters: Eurofins KinaseProfiler full panel at Km ATP, residual kinase activity (%) relative to DMSO

The target of assay [1] is T1, ASK1(h) (Homo sapiens, UniProt Q99683).
T1 construct: gene MAP3K5
T1 sequence (Q99683 1-1374): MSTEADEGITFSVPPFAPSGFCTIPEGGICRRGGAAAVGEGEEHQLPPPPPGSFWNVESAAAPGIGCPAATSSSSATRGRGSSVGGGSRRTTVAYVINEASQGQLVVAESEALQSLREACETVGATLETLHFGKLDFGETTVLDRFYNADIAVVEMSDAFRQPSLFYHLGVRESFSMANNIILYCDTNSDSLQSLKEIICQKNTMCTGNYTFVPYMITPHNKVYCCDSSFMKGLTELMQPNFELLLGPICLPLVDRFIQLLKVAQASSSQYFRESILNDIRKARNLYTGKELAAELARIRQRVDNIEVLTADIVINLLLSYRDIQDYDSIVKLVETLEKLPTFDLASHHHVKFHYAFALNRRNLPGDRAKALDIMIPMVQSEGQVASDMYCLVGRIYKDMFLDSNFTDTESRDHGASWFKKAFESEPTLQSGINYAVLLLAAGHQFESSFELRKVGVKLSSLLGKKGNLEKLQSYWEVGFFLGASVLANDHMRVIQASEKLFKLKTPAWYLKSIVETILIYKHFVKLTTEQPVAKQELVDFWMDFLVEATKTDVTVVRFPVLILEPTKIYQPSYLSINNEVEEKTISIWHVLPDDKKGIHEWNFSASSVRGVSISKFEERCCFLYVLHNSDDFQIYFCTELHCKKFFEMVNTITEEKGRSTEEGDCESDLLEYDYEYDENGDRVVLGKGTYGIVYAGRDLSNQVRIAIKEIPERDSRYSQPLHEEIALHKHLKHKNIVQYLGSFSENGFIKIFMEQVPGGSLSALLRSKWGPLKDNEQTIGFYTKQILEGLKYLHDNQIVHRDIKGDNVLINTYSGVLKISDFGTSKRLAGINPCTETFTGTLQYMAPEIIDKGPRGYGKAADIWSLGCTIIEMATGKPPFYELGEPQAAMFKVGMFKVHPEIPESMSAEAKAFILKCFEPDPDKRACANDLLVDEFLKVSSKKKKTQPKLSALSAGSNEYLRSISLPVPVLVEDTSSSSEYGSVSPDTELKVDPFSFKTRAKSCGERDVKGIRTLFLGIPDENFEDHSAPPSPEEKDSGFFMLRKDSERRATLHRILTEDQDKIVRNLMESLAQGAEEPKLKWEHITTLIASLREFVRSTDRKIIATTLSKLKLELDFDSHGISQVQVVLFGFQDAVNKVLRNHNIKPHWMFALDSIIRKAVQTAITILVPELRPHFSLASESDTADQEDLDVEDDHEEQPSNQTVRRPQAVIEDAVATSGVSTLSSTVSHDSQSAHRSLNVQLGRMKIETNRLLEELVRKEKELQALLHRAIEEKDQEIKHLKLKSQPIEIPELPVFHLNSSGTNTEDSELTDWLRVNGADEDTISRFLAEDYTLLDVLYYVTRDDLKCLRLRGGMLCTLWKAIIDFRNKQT
An outline of the steps:
(§1)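 Two 10 µM single-concentration screens were run: a competition-binding screen, in which DNA-tagged kinase bound to immobilized ligands was quantified by qPCR, and a radiometric activity panel at Km ATP. Each is expressed as residual kinase activity (%).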

Assay [2] addresses T2, Abl(T315I)(h) (Homo sapiens, UniProt P00519, T315I).
T2 construct: gene ABL1
An outline of the steps: as §1

The target in assay [3] is T3, CK1γ3(h) (Homo sapiens, UniProt Q9Y6M4).
T3 construct: gene CSNK1G3
T3 sequence (Q9Y6M4 whole entry): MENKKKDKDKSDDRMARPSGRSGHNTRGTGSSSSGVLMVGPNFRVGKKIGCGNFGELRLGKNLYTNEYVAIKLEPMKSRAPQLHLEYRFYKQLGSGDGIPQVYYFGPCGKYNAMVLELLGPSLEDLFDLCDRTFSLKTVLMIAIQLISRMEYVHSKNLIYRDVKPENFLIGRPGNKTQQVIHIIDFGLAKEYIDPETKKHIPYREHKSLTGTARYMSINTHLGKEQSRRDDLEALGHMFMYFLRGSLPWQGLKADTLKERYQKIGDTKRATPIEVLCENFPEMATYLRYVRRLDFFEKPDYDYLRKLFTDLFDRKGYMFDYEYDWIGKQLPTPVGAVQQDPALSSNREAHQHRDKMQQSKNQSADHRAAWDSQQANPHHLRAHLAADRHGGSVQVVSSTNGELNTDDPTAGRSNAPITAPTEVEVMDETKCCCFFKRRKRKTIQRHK
An outline of the steps:
as §1

In assay [4] the target is Fer(h) (Homo sapiens, UniProt P16591). The method in brief:
as §1

Assay [5] has as its target MARK1(h) (Homo sapiens, UniProt Q9P0L2). An outline of the steps: as §1
The target of assay [6] is T4, PTK5(h) (Homo sapiens, UniProt P42685).
T4 construct: gene FRK
T4 sequence (P42685 whole entry): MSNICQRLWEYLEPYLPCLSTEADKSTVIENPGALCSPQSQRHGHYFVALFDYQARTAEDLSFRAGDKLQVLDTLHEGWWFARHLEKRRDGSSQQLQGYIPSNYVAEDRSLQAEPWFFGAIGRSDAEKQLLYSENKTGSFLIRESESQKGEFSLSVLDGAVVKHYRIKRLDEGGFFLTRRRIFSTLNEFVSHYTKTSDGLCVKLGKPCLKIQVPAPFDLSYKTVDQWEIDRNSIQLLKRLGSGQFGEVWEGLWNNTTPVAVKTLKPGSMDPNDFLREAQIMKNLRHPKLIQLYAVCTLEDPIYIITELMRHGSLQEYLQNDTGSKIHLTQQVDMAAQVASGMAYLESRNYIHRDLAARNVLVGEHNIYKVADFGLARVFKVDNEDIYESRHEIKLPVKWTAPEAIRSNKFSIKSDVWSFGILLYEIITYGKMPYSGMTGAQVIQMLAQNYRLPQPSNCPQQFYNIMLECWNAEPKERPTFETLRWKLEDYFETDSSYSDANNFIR
The method in brief:
as §1

In assay [7] the target is T5, Rsk1(r) (Rattus norvegicus, UniProt Q63531).
T5 construct: gene Rps6ka1
T5 sequence (Q63531 whole entry): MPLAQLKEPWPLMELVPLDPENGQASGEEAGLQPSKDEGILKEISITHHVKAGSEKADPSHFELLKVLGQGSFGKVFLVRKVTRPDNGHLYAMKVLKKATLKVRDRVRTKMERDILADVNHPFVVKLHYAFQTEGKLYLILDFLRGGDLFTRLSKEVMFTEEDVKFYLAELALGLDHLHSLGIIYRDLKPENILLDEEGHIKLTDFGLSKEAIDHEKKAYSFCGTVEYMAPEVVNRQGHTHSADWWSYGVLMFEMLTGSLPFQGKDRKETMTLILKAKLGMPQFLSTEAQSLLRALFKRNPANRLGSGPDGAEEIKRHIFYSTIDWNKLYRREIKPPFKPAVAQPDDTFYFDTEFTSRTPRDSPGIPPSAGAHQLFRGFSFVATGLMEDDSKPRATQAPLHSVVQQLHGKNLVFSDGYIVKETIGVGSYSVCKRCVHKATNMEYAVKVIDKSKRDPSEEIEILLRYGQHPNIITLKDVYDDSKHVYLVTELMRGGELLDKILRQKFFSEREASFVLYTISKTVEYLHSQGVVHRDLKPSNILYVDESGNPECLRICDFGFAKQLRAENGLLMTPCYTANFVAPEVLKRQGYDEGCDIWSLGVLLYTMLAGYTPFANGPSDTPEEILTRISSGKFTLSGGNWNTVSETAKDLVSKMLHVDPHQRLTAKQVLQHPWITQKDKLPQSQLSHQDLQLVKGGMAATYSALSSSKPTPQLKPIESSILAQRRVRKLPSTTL
An outline of the steps:
as §1

Assay [8] has as its target T6, TSSK4(h) (Homo sapiens, UniProt Q6SA08).
T6 sequence (Q6SA08 1-328): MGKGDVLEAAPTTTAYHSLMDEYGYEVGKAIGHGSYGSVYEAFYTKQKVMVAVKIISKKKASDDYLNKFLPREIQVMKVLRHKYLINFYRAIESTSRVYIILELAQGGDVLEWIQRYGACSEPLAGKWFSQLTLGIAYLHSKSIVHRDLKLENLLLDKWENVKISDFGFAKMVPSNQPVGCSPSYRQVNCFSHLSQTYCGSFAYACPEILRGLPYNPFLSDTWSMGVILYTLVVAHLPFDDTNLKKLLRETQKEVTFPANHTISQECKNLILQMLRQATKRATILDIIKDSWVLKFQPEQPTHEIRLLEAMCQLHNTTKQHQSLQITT
The method in brief:
as §1

Where [9] appears, read: read-out: Residual activity (%) 5at.
[10] abbreviates: read-out: Residual activity (%) 5ay.
Setting [11] is: read-out: Residual activity (%) 5as.
The mark [12] stands for this setting: read-out: Residual activity (%) Spautin-1 5aa.

Sequence of MARK1(h) (Q9P0L2 whole entry): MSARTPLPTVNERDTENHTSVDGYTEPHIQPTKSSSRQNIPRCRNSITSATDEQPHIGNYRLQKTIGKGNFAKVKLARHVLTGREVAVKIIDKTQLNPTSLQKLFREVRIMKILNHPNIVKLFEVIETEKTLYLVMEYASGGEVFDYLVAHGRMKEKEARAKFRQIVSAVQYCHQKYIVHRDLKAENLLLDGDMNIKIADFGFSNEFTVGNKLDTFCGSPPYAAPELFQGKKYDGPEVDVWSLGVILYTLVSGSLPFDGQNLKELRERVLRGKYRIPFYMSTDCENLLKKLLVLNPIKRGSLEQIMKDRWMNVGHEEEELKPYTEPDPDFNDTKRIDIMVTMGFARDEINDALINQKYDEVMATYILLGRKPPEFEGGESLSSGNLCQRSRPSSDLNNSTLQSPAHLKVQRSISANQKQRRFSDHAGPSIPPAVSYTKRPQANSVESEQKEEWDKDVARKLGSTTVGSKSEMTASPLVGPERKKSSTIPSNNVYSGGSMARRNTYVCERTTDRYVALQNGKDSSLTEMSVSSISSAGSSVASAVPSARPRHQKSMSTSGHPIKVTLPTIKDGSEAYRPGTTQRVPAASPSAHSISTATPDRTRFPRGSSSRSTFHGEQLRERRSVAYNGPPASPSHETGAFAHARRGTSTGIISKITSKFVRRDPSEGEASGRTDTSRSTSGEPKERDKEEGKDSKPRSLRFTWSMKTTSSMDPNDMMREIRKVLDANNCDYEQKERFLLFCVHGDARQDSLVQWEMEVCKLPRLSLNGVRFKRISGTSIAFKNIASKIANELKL
Sequence of Fer(h) (P16591 whole entry): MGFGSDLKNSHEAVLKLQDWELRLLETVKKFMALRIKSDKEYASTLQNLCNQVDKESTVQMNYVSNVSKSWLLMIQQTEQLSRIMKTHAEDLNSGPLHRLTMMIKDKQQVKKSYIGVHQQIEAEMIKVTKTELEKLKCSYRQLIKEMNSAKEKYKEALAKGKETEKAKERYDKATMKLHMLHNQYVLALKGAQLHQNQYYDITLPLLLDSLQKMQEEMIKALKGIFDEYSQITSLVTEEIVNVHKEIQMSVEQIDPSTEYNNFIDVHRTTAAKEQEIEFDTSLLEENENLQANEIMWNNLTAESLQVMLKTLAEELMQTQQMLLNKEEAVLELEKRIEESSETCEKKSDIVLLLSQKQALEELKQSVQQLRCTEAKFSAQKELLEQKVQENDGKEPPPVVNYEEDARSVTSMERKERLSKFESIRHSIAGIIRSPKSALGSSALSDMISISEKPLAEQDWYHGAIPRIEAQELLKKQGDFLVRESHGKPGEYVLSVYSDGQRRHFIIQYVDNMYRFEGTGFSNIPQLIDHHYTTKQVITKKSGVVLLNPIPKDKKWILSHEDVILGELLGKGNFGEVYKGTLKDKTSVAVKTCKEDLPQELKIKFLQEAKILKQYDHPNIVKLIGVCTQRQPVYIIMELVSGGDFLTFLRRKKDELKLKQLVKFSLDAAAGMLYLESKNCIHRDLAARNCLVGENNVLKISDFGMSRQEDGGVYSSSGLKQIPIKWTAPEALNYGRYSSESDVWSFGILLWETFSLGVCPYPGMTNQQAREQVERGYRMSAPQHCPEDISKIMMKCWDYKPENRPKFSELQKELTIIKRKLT

With `Fc1ccc2ncnc(NCCc3ccc(Cl)cc3)c2c1` [5at, N-[2-(4-Chlorophenyl)Ethyl]-6-Fluoro-4-Quinazolinamine], the remaining activity at 10 µM was 80% in assay [1] (setting [9]); 80% in assay [2] (setting [9]); 73% in assay [3] (setting [9]); 94% in assay [4] (setting [9]); 82% in assay [5] (setting [9]); 95% in assay [6] (setting [9]). Further, the remaining activity at 10 µM in assay [7] (setting [9]) amounted to 113%; in assay [8] (setting [9]) it was 125%.
With `COc1ccc2ncnc(Nc3cccc(F)c3)c2c1` [5ay, N-(3-Fluorophenyl)-6-Methoxy-4-Quinazolinamine], the remaining activity at 10 µM amounted to 99% in assay [1] (setting [10]); 91% in assay [2] (setting [10]); 83% in assay [3] (setting [10]); 80% in assay [4] (setting [10]); 89% in assay [5] (setting [10]); 64% in assay [6] (setting [10]). Also, the remaining activity at 10 µM was found to be 129% in assay [7] (setting [10]) and 134% in assay [8] (setting [10]).
As for `Fc1ccc(CCNc2ncnc3ccc(F)cc23)cc1` [5as, 6-Fluoro-N-[2-(4-Fluorophenyl)Ethyl]-4-Quinazolinamine], the remaining activity at 10 µM in assay [1] (setting [11]) worked out at 85%; in assay [2] (setting [11]), 101%; in assay [3] (setting [11]), 87%; in assay [4] (setting [11]), 98%; in assay [5] (setting [11]), 96%; in assay [6] (setting [11]), 84%. For the same compound, the results for the remaining activity at 10 µM in assay [7] (setting [11]) and in assay [8] (setting [11]) were 130% and 112%, respectively.
As to `Fc1ccc(CNc2ncnc3ccc(F)cc23)cc1` [5aa, 6-Fluoro-N-(4-fluorobenzyl)-4-Quinazolinamine], the remaining activity at 10 µM in assay [1] (setting [12]) came out at 95%; in assay [2] (setting [12]) it was 73%; in assay [3] (setting [12]), 81%; in assay [4] (setting [12]), 76%; in assay [5] (setting [12]), 89%; in assay [6] (setting [12]), 85%. Also, the remaining activity at 10 µM stood at 117% in assay [7] (setting [12]) and 89% in assay [8] (setting [12]).

These data come from PMC7827406, “Structure–Activity Relationship (SAR) Study of Spautin-1 to Entail the Discovery of Novel NEK4 Inhibitors” (International Journal of Molecular Sciences, 2021).
